Measurements published in the supplement of paper PMC10307832.

Tests used:
Assay in all cases: relative viability (nuclei count vs DMSO), 5 days (fraction); higher = more cells survive
IPA-3 + Trametinib = compound: C1=CC=C2C(=C1)C=CC(=C2SSC3=C(C=CC4=CC=CC=C43)O)O [IPA-3] + CC(=O)Nc1cccc(-n2c(=O)n(C3CC3)c(=O)c3c(Nc4ccc(I)cc4F)n(C)c(=O)c(C)c32)c1 [Trametinib] (partner 0.02 µM)
Summary of the method: (§1)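 Five library-drug doses in √10 steps were combined with a fixed anchor-drug dose, or a single drug was given alone, by pin tool to lung cancer cell lines in 1536-well plates the day after seeding. Nuclei were stained and counted after 5 days. Relative viability is the nuclei count in treated wells over that in vehicle wells, taken as the median of duplicate plates.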

Doramapimod + Trametinib = compound: Cc1ccc(-n2nc(C(C)(C)C)cc2NC(=O)Nc2ccc(OCCN3CCOCC3)c3ccccc23)cc1 [Doramapimod] + CC(=O)Nc1cccc(-n2c(=O)n(C3CC3)c(=O)c3c(Nc4ccc(I)cc4F)n(C)c(=O)c(C)c32)c1 [Trametinib] (partner 0.02 µM)
Summary of the method: as §1

RAF265 + AZD7762 = compound: Cn1c(Nc2ccc(C(F)(F)F)cc2)nc2cc(Oc3ccnc(-c4ncc(C(F)(F)F)[nH]4)c3)ccc21 [RAF265] + NC(=O)Nc1cc(-c2cccc(F)c2)sc1C(=O)N[C@H]1CCCNC1 [AZD7762] (partner 0.2 µM)
Summary of the method: as §1

RAF265 + Olaparib = compound: Cn1c(Nc2ccc(C(F)(F)F)cc2)nc2cc(Oc3ccnc(-c4ncc(C(F)(F)F)[nH]4)c3)ccc21 [RAF265] + O=C(c1cc(Cc2n[nH]c(=O)c3ccccc23)ccc1F)N1CCN(C(=O)C2CC2)CC1 [Olaparib] (partner 8 µM)
Summary of the method: as §1

| Cell Line | relative viability (IPA-3 + Trametinib; first compound 0.2 µM) | relative viability (IPA-3 + Trametinib; first compound 0.6325 µM) | relative viability (IPA-3 + Trametinib; first compound 2 µM) | relative viability (IPA-3 + Trametinib; first compound 6.325 µM) | relative viability (IPA-3 + Trametinib; first compound 20 µM) | relative viability (Doramapimod + Trametinib; first compound 0.02 µM) | relative viability (Doramapimod + Trametinib; first compound 0.06325 µM) | relative viability (Doramapimod + Trametinib; first compound 0.2 µM) | relative viability (Doramapimod + Trametinib; first compound 0.6325 µM) | relative viability (Doramapimod + Trametinib; first compound 2 µM) | relative viability (RAF265 + AZD7762; first compound 0.01 µM) | relative viability (RAF265 + AZD7762; first compound 0.03162 µM) | relative viability (RAF265 + AZD7762; first compound 0.1 µM) | relative viability (RAF265 + AZD7762; first compound 0.3162 µM) | relative viability (RAF265 + AZD7762; first compound 1 µM) | relative viability (RAF265 + Olaparib; first compound 0.01 µM) | relative viability (RAF265 + Olaparib; first compound 0.03162 µM) | relative viability (RAF265 + Olaparib; first compound 0.1 µM) | relative viability (RAF265 + Olaparib; first compound 0.3162 µM) | relative viability (RAF265 + Olaparib; first compound 1 µM) |
| --- | --- | --- | --- | --- | --- | --- | --- | --- | --- | --- | --- | --- | --- | --- | --- | --- | --- | --- | --- | --- |
| HCC-366 | 0.487 | 0.301 | 0.374 | 0.336 | 0.283 | 0.309 | 0.248 | 0.259 | 0.263 | 0.212 | 0.25 | 0.253 | 0.396 | 0.321 | 0.157 | 0.388 | 0.38 | 0.452 | 0.397 | 0.239 |
| HCC-827 | 0.553 | 0.518 | 0.585 | 0.597 | 0.675 | 0.571 | 0.408 | 0.521 | 0.594 | 0.405 | 0.213 | 0.357 | 0.215 |  | 0.197 | 0.727 | 0.7 | 0.794 |  | 0.512 |
| HOP-62 | 0.408 | 0.349 | 0.414 | 0.348 | 0.382 | 0.411 | 0.349 | 0.464 | 0.423 | 0.468 | 0.572 | 0.553 | 0.462 | 0.482 | 0.422 | 0.461 | 0.448 | 0.439 | 0.479 | 0.268 |
| IA-LM |  |  |  |  |  |  |  |  |  |  |  |  |  |  |  | 0.745 | 0.81 | 0.832 | 0.681 | 0.61 |
| LC-2-ad | 0.958 | 0.943 | 0.93 | 0.948 | 0.889 | 0.992 | 0.92 | 0.906 | 0.981 | 0.855 | 0.848 | 0.933 | 0.914 | 0.721 | 0.669 | 0.696 | 0.769 | 0.921 | 0.904 | 0.636 |
| LCLC-97TM1 | 0.221 | 0.206 | 0.205 | 0.218 | 0.223 | 0.169 | 0.225 | 0.249 | 0.265 | 0.204 | 0.203 | 0.323 | 0.259 | 0.167 | 0.0766 | 0.363 | 0.299 | 0.237 | 0.22 | 0.109 |
| LCLC-103H | 0.693 | 0.686 | 0.718 | 0.687 | 0.675 | 0.656 | 0.675 | 0.683 | 0.68 | 0.679 | 0.815 | 0.911 | 0.767 | 0.727 | 0.598 | 0.759 | 0.717 | 0.75 | 0.595 | 0.444 |
| LK-2 | 0.904 | 0.752 | 0.721 | 0.846 | 0.934 | 0.587 | 0.727 | 0.715 | 0.31 | 0.647 | 0.506 | 0.432 | 0.537 | 0.448 | 0.371 | 0.794 | 0.751 | 0.769 | 0.668 | 0.512 |
| LOU-NH91 | 0.79 | 0.757 | 0.805 | 0.779 | 0.852 | 0.802 | 0.771 | 0.761 | 0.767 | 0.678 | 0.756 | 0.71 | 0.687 | 0.631 | 0.551 | 1.02 | 0.831 | 0.9 | 0.675 | 0.737 |
